From patent USRE42890E1, “Furazanobenzimidazoles” (Basilea Pharmaceutica AG, priority 2003, dated 2011)
pIC50: −log10 of the molar value.

Key:
[1] = test system: Jurkat; assay: MTS proliferation assay, Jurkat; assay type: cell-based, human; details: 72 h incubation, read-out: MTS proliferation assay IC 50 Jurkat
Outline: (§1)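 Human lines, EGFP-transfected or not, grow in RPMI-1640 plus 5% or 10% FCS and 2-mercaptoethanol. They receive test compound for 72 h at final concentrations of 10, 3, 1 and 0.3 μM, and MTS conversion is measured at 492 nm.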

[2] = test system: Jily; assay: MTS proliferation assay, Jily; assay type: cell-based; details: 72 h incubation, read-out: MTS proliferation assay IC 50 Jily
Outline: (§2)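 Seed cells in complete RPMI-1640 medium and allow 24 h attachment. Add compounds to final 10 μM, 3 μM, 1 μM or 0.3 μM and incubate 72 h at 37° C. Add MTS, incubate 3 h more, then measure absorption at 492 nm.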

[3] = test system: HT1080; assay: MTS proliferation assay, HT1080; assay type: cell-based, human; details: HT1080, 72 h incubation; read-out: MTS proliferation assay IC 50 HT1080
Outline: as §1

[4] = test system: HeLa; assay: MTS proliferation assay, HeLa; assay type: cell-based, human; details: 72 h incubation, read-out: MTS proliferation assay IC 50 HeLa
Outline: as §1

[5] = test system: MRC5; assay: MTS proliferation assay, MRC5; assay type: cell-based; details: MRC5, 72 h incubation; read-out: MTS proliferation assay IC 50 MRC5
Outline: as §2

[6] = test system: adherent cells or suspension cells; assay: Hoechst 33342 nuclear staining (fraction of apoptotic nuclei); assay type: cell-based; set-up: key: 0 relating to no activity; 1 relating to weak activity comprising less than 70% of the cells; score 2 relating to strong activity comprising more than 70% of the cells

Row | SMILES | pIC50 [1] | pIC50 [2] | pIC50 [3] | pIC50 [4] | pIC50 [5] | Hoechst 33342 nuclear staining score ([6]; H460, conc 0.01 μm) | Hoechst 33342 nuclear staining score ([6]; H460, conc 0.1 μm) | Hoechst 33342 nuclear staining score ([6]; H460, conc 1 μm) | Hoechst 33342 nuclear staining score ([6]; HeLa, conc 0.01 μm) | Hoechst 33342 nuclear staining score ([6]; HeLa, conc 0.1 μm) | Hoechst 33342 nuclear staining score ([6]; HeLa, conc 1 μm) | Hoechst 33342 nuclear staining score ([6]; Jily, conc 0.01 μm) | Hoechst 33342 nuclear staining score ([6]; Jily, conc 0.1 μm) | Hoechst 33342 nuclear staining score ([6]; Jily, conc 1 μm) | Hoechst 33342 nuclear staining score ([6]; Jurkat, conc 0.01 μm) | Hoechst 33342 nuclear staining score ([6]; Jurkat, conc 0.1 μm) | Hoechst 33342 nuclear staining score ([6]; Jurkat, conc 1 μm) | Hoechst 33342 nuclear staining score ([6]; MRC5, conc 0.01 μm) | Hoechst 33342 nuclear staining score ([6]; MRC5, conc 0.1 μm) | Hoechst 33342 nuclear staining score ([6]; MRC5, conc 1 μm) | further results
1 | Nc1ccc(C(=O)Cn2c(-c3nonc3N)nc3ccccc32)cc1[N+](=O)[O-] [Example 65] | > 8.00 | > 8.00 | > 8.00 | 7.00 to 8.00 | > 8.00 | 2 (score 2 relating to strong activity comprising more than 70% of the cells) | 2 (score 2 relating to strong activity comprising more than 70% of the cells) | 2 (score 2 relating to strong activity comprising more than 70% of the cells) | 0 | 2 (score 2 relating to strong activity comprising more than 70% of the cells) | 2 (score 2 relating to strong activity comprising more than 70% of the cells) | 2 (score 2 relating to strong activity comprising more than 70% of the cells) | 2 (score 2 relating to strong activity comprising more than 70% of the cells) | 2 (score 2 relating to strong activity comprising more than 70% of the cells) | 2 (score 2 relating to strong activity comprising more than 70% of the cells) | 2 (score 2 relating to strong activity comprising more than 70% of the cells) | 2 (score 2 relating to strong activity comprising more than 70% of the cells) | 0 | 2 (score 2 relating to strong activity comprising more than 70% of the cells) | 2 (score 2 relating to strong activity comprising more than 70% of the cells) | Hoechst 33342 nuclear staining score ([6]; PBLs, conc 0.01 μm): 0; Hoechst 33342 nuclear staining score ([6]; PBLs, conc 0.1 μm): 0; Hoechst 33342 nuclear staining score ([6]; PBLs, conc 1 μm): 0
2 | N#CCCNc1nonc1-c1nc2ccccc2n1CC(=O)c1ccc2ccccc2c1 [Example 46] | > 8.00 | 7.00 to 8.00 | 7.00 to 8.00 | 7.00 to 8.00 | 6.00 to 7.00 | 0 | 0 | 2 (score 2 relating to strong activity comprising more than 70% of the cells) | 0 | 0 | 2 (score 2 relating to strong activity comprising more than 70% of the cells) | 0 | 2 (score 2 relating to strong activity comprising more than 70% of the cells) | 2 (score 2 relating to strong activity comprising more than 70% of the cells) | 0 | 2 (score 2 relating to strong activity comprising more than 70% of the cells) | 2 (score 2 relating to strong activity comprising more than 70% of the cells) | 0 | 0 | 2 (score 2 relating to strong activity comprising more than 70% of the cells) | Hoechst 33342 nuclear staining score ([6]; PBLs, conc 0.01 μm): 0; Hoechst 33342 nuclear staining score ([6]; PBLs, conc 0.1 μm): 0; Hoechst 33342 nuclear staining score ([6]; PBLs, conc 1 μm): 0
3 | CC(=O)Nc1ccc(C(=O)Cn2c(-c3nonc3N)nc3ccccc32)cc1[N+](=O)[O-] [Example 64] | 7.00 to 8.00 | 7.00 to 8.00 | 7.00 to 8.00 | 7.00 to 8.00 | 7.00 to 8.00 | 0 | 2 (score 2 relating to strong activity comprising more than 70% of the cells) | 2 (score 2 relating to strong activity comprising more than 70% of the cells) | 0 | 2 (score 2 relating to strong activity comprising more than 70% of the cells) | 2 (score 2 relating to strong activity comprising more than 70% of the cells) | 2 (score 2 relating to strong activity comprising more than 70% of the cells) | 2 (score 2 relating to strong activity comprising more than 70% of the cells) | 2 (score 2 relating to strong activity comprising more than 70% of the cells) | 2 (score 2 relating to strong activity comprising more than 70% of the cells) | 2 (score 2 relating to strong activity comprising more than 70% of the cells) | 2 (score 2 relating to strong activity comprising more than 70% of the cells) | 0 | 1 (1 relating to weak activity comprising less than 70% of the cells) | 1 (1 relating to weak activity comprising less than 70% of the cells) | Hoechst 33342 nuclear staining score ([6]; PBLs, conc 0.01 μm): 0; Hoechst 33342 nuclear staining score ([6]; PBLs, conc 0.1 μm): 0; Hoechst 33342 nuclear staining score ([6]; PBLs, conc 1 μm): 0
4 | Nc1ccc(C(=O)Cn2c(-c3nonc3N)nc3ccccc32)cc1 [Example 50] | 7.00 to 8.00 | 7.00 to 8.00 | 7.00 to 8.00 | 7.00 to 8.00 | 7.00 to 8.00 | 1 (1 relating to weak activity comprising less than 70% of the cells) | 2 (score 2 relating to strong activity comprising more than 70% of the cells) | 2 (score 2 relating to strong activity comprising more than 70% of the cells) | 0 | 2 (score 2 relating to strong activity comprising more than 70% of the cells) | 2 (score 2 relating to strong activity comprising more than 70% of the cells) | 2 (score 2 relating to strong activity comprising more than 70% of the cells) | 2 (score 2 relating to strong activity comprising more than 70% of the cells) | 2 (score 2 relating to strong activity comprising more than 70% of the cells) | 2 (score 2 relating to strong activity comprising more than 70% of the cells) | 2 (score 2 relating to strong activity comprising more than 70% of the cells) | 2 (score 2 relating to strong activity comprising more than 70% of the cells) | 0 | 2 (score 2 relating to strong activity comprising more than 70% of the cells) | 2 (score 2 relating to strong activity comprising more than 70% of the cells) | Hoechst 33342 nuclear staining score ([6]; PBLs, conc 0.01 μm): 0; Hoechst 33342 nuclear staining score ([6]; PBLs, conc 0.1 μm): 0; Hoechst 33342 nuclear staining score ([6]; PBLs, conc 1 μm): 0
